# Measurements from patent US8012929B2, “Peptides directed for diagnosis and treatment of amyloid-associated diseases” (Tel Aviv University Future Technology Development L.P., priority 2002, dated 2011).
# Like-named read-outs stand apart in the source and are kept apart here. Square brackets hold non-standard residues; d marks the D form. Peptide text beside a SMILES is read from it. Aib = CC(C)(N)C(=O)O
# Tests used:
# [1] = target: T1, β-amyloid1-42 globulomers (Homo sapiens, UniProt P05067); test: β-amyloid1-42 globulomer formation (6E10 immunoblot, densitometry); format: biochemical; conditions: 0.13 mM β-amyloid, 1:5 to 1:20 molar ratio, 18 hours at 37° C.
# T1 construct: β-amyloid monomers (0.4 mM) were produced by dissolving the 1-42 peptide in 1,1,1,3,3,3-hexafluoroisopropanol; purchased Bachem (Bubendorf Switzerland)
# Text: […] Solutions were then separated using a 15% Tris-Tricine gel, and transferred to a PVDF membrane, which was screened with a mouse anti β-amyloid monoclonal antibody (6E10; Signet, Dedham, Mass.)
# [2] = system: hAPP(751) transgenic mice; conditions: mouse, in vivo, ip
# Procedure: Experimental design—20 (+3 reserves) 4.5 month (±1 week) old male hAPP(751) transgenic mice were divided into 2 treatment groups, a control group—treated with vehicle and an experimental group—treated with D-Trp-Aib. Animals were treated for 120 days with 3 intraperitoneal (i.p.) injections of 1 mg per animal per day 7 of the original 20 animals died during the 4-month experimental period, 4 of them from the control group.
# [3] = Serum stability, human serum (HPLC); format: in vitro ADME; conditions: 37° C., 2 and 5 hours
# Text: D-Trp-Aib serum stability—Regardless of administration route, all drugs penetrate and distribute in the body via the blood system. This milieu is based not only on cells and buffering compounds, but also on proteins, carbohydrates, lipid-protein micelles, etc. Serum proteins mainly contain carrier proteins, such as albumin, but also contain many enzymes that might treat the drug as a substrate. Thus, the susceptibility of any drug entering this environment should be evaluated. The stability of D-Trp-Aib spiked into serum was evaluated by analysis of intact sample concentrations at different time points. D-Trp-Aib (250 μg/ml PBS) was incubated with mouse (Harlan Biotech, Israel) or human (obtained from Sheba medical center, Tel Hashomer, Israel) sera or PBS (1:1, 37° C.), and aliquots were analyzed by HPLC analysis at times 0, 2 and 5 hrs. The reaction was stopped and precipitation was effected by the addition of acetonitrile (Baker, Phillipsburg N.J.) and 10% TCA. Following centrifugation (10,000 g, 5 min), Supernatant was transferred to HPLC analysis. Mean amounts of D-Trp-Aib (μg)±s.e.m. were calculated by an internal calibration curve. […]
# [4] = system: neuronal primary cell cultures; test: Neurotoxicity (5% assay), MTT and Calcein-AM; format: cell-based
# Procedure: Neurotoxicity (5% assay)—Neural cells were grown in Poly-D-Lysine coated 96-well plates. Eighty μl medium containing 48.000 cells/well were added to each well plate containing 80 μl T.I. in the appropriate concentrations, or nutrition medium (control). Plates were kept at 37° C., 95% humidity and 5% CO2. Neurons, which begin to extend processes after a few hours in culture, were maintained in the same medium without change or addition of media for 8 days, until the end of the experiments. For Neurotoxicity, the MTT-assay was effected using a plate-reader (570 nm) for determining the culture viability, as described in Example 49. The MTT assay is based on the ability of a dehydrogenase enzyme from an active mitochondiria to produce a dark blue formazan product from the pale yellow MTT substrate, by cleaving the MTT tetrazolium rings. Since in the MTT-assay sometimes interference between the substance/drug applied and the generation of formazane crystals can be seen, it is necessary to introduce a second evaluation system. Therefore, the viability of cultures was determined with the Calcein-AM assay as well, as described in Neri et al., [Clin. Diagn. Lab Immunol. 1131-1135 (2001)], using an automated fluorescence plate-reader (485/535 nm). Calcein AM is a widely used green fluorescent cell marker, which is membrane-permeant and thus can be introduced into cells via incubation. […]
# CYP450 3A4 = CYP450 3A4 (Homo sapiens, UniProt P08684); test: Human CYP450 screen 3A4; format: in vitro ADME
# Text: For the metabolic stability assay, Human cytochrom P450 (CYP450) screens were used. The cytochrom P450 isoenzymes, which are located in the intestines, liver, lung, kidney and brain, are involved in important drug interactions. Drug metabolism occurs in two phases—Phase I involves oxidation, reduction, and hydrolysis. Phase II involves synthesis and conjugation. The CYP 450 isoenzymes are involved in Phase I oxidative reactions. CYP 450 interactions generally result from one of two processes—Induction, where a substance stimulates the synthesis of the enzyme and metabolic capacity is increased, and inhibition, where competitive binding at an enzyme's binding site(s) occurs. A drug with a high affinity for an enzyme will slow the metabolism of any low affinity drug. CYP 3A3/4 is the most abundant CYP 450 isoenzyme in humans and is responsible for the metabolism of the widest range of drugs/substances. (CYP450) screens used were 1A2, 2C9, 2C19, 2D6 and 3A4.
# [5] = mouse, in vivo
# Procedure: (§1) Animals were treated following a 4 hour fast, with water ad libitum, and fed 2 hours after administration. Thereafter, animals were sacrificed at different time intervals (5 minutes-8 hours; 3 animals in each group, at every time interval were sacrificed by sodium pentobarbital anesthesia followed by exanguination) and blood (plasma), brain, liver, kidney and pancreas were collected and later analyzed. Plasma and brain tissue samples were analyzed by high-performance liquid chromatography with tandem mass spectrometry (LC-MS/MS).
# (§2) In case of brain tissue, only AUC0-4 was calculated. All parameters were calculated using the software PK solutions Version 2.0 for Noncompartmental Pharmacokinetics Data analysis (Summit Research Services, Montrose, Colo.).
# in vivo = conditions: CD-1, mouse
# Procedure: as §1, §2
# [6] = inhaled or intranasal, 20 mg/kg
# Chain of CYP450 3A4 (P08684 whole entry): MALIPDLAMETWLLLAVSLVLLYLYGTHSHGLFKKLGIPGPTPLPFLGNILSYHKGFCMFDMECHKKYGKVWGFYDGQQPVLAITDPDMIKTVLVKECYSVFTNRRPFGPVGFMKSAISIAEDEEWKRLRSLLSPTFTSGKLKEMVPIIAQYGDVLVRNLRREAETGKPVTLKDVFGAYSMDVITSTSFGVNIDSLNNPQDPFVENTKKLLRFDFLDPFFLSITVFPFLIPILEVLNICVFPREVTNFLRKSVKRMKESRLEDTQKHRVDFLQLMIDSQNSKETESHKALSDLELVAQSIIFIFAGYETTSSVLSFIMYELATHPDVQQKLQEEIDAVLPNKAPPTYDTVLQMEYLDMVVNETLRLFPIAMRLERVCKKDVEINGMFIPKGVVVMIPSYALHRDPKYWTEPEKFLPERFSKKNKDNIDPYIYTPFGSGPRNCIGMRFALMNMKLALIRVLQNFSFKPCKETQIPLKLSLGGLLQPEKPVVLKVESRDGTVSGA
# T1 sequence (P05067 672-713): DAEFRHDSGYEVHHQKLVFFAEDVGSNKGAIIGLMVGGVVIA
smiles,measurement,setting,value
CC(C)(NC(=O)[C@H](N)Cc1c[nH]c2ccccc12)C(=O)O [D-Trp-Aib] (H-[dW]-[Aib]-OH),amount of globulomers (densitometer analysis),[1],about 45 % of the control
same,long-term toxicity,[2],no long-term toxicity
same,D-Trp-Aib concentration after incubation in serum,[3],No decrease
same,cytotoxicity towards neuronal primary cell cultures,[4]; MTT viability assay and Calcein AM assay,noncytotoxic
same,neuronal viability compared to the untreated control,[4]; concentration of up to 150 μM,did not alter neuronal viability
same,activity in CYP450 screen,CYP450 3A4,None of the results met significance criteria
same,detection in brain tissue (transport through the blood-brain barrier),[5],detected in all the assayed brain tissue samples
same,"exposure of the brain, intranasal compared to oral administration",[5],higher exposure of the brain
same,Cl (area)/kg,[5]; [6],1.15168 L/h/kg
same,Vd (area)/kg,[5]; [6],2.14474 L/kg
same,AUC (0-t) (obs area),"[5]; iv, 50 mg/kg",2173.55
same,AUCextra,"[5]; iv, 50 mg/kg",0.11%
same,earliest detection post-dosing (rapidly absorbed),[5]; po,15 min
same,AUC (0-t) (obs area),"[5]; po, 50 mg/kg",453.91
same,AUCextra,"[5]; po, 50 mg/kg",0.24%
same,Cl (area)/kg,"[5]; po, 50 mg/kg",1.22914 L/h/kg
same,Vd (area)/kg,"[5]; po, 50 mg/kg",1.90581 L/kg
same,half-life,in vivo,1.1 to 1.2 h
same,bioavailability,in vivo; inhaled or intranasal,65.5%
same,AUC(0-inf),in vivo; [6],11.4 µg·h/mL
same,AUC(0-t),in vivo; [6],10.6 µg·h/mL
same,MRT,in vivo; [6],0.98 h
same,half-life,in vivo; [6],1.29 h
same,AUC(0-inf),"in vivo; iv, 50 mg/kg",40.6 µg·h/mL
same,AUC(0-t),"in vivo; iv, 50 mg/kg",40.6 µg·h/mL
same,MRT,"in vivo; iv, 50 mg/kg",0.44 h
same,Vd,"in vivo; iv, 50 mg/kg",2.16 L/kg
same,bioavailability,"in vivo; iv, 50 mg/kg",100%
same,clearance,"in vivo; iv, 50 mg/kg",1.23 L/h/kg
same,half-life,"in vivo; iv, 50 mg/kg",1.22 h
same,AUC(0-inf),"in vivo; po, 50 mg/kg",15.7 µg·h/mL
same,AUC(0-t),"in vivo; po, 50 mg/kg",15.7 µg·h/mL
same,Cmax,"in vivo; po, 50 mg/kg",9.81 µg/mL
same,MRT,"in vivo; po, 50 mg/kg",1.29 h
same,Tmax,"in vivo; po, 50 mg/kg",1 h
same,bioavailability,"in vivo; po, 50 mg/kg",38.7%
same,half-life,"in vivo; po, 50 mg/kg",1.07 h
